The source of these data is US20100016401A1, “3-AZA-BICYCLO[3.1.0]HEXANE DERIVATIVES” (Actelion Phamaceuticals Ltd., priority 2006, published 2010).

In one assay the target is T1, human orexin-1 receptor (Homo sapiens, UniProt O43613).
T1 construct: expressed in transfected cells; host or cells: CHO (Chinese hamster ovary) cells, grown under G418 selection
T1 sequence (O43613 1-425): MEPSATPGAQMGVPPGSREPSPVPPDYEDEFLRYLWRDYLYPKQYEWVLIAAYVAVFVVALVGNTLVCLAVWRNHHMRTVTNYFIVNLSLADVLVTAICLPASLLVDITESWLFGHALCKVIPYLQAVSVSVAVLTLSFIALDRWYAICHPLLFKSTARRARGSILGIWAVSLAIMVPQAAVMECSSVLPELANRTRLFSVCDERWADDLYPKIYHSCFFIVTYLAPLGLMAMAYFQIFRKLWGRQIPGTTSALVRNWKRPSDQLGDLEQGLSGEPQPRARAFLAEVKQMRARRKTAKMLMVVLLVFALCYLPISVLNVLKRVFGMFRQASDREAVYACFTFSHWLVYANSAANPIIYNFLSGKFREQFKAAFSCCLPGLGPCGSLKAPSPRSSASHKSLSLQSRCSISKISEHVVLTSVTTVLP
Nature of the assay: Intracellular calcium measurements (FLIPR), orexin receptor antagonistic activity, OX1. In kind it is cell-based. To be noted: CHO cells expressing human orexin-1 receptor, 10 nM orexin-A as agonist. The procedure: (§1) The orexin receptor antagonistic activity of the compounds of formula (I) is determined in accordance with the following experimental method.
(§2) Intracellular Calcium Measurements:
(§3) Chinese hamster ovary (CHO) cells expressing the human orexin-1 receptor and the human orexin-2 receptor, respectively, are grown in culture medium (Ham F-12 with L-Glutamine) containing 300 μg/ml G418, 100 U/ml penicillin, 100 μg/ml streptomycin and 10% inactivated fetal calf serum (FCS). The cells are seeded at 80,000 cells/well into 96-well black clear bottom sterile plates (Costar) which have been precoated with 1% gelatine in Hanks' Balanced Salt Solution (HBSS). All reagents are from Gibco BRL. The seeded plates are incubated overnight at 37° C. in 5% CO2.
(§4) Human orexin-A as an agonist is prepared as 1 mM stock solution in MeOH: water (1:1), diluted in HBSS containing 0.1% bovine serum albumin (BSA) and 2 mM HEPES for use in the assay at a final concentration of 10 nM.
(§5) Antagonists are prepared as 10 mM stock solution in DMSO, then diluted in 96-well plates, first in DMSO, then in HBSS containing 0.1% bovine serum albumin (BSA) and 2 mM HEPES.
(§6) On the day of the assay, 100 μl of loading medium (HBSS containing 1% FCS, 2 mM HEPES, 5 mM probenecid (Sigma) and 3 μM of the fluorescent calcium indicator fluo-3 AM (1 mM stock solution in DMSO with 10% pluronic acid) (Molecular Probes) is added to each well.
(§7) The 96-well plates are incubated for 60 min at 37° C. in 5% CO2. The loading solution is then aspirated and cells are washed 3 times with 200 μl HBSS containing 2.5 mM probenecid, 0.1% BSA, 2 mM HEPES. 100 μl of that same buffer is left in each well.
(§8) Within the Fluorescent Imaging Plate Reader (FLIPR, Molecular Devices), antagonists are added to the plate in a volume of 50 μl, incubated for 20 min and finally 100 μl of agonist is added. Fluorescence is measured for each well at 1 second intervals, and the height of each fluorescence peak is compared to the height of the fluorescence peak induced by 10 nM orexin-A with buffer in place of antagonist.

A further assay concerns the target T2, human orexin-2 receptor (Homo sapiens, UniProt O43614).
T2 construct: expressed in transfected cells; host or cells: CHO (Chinese hamster ovary) cells, grown under G418 selection
T2 sequence (O43614 1-444): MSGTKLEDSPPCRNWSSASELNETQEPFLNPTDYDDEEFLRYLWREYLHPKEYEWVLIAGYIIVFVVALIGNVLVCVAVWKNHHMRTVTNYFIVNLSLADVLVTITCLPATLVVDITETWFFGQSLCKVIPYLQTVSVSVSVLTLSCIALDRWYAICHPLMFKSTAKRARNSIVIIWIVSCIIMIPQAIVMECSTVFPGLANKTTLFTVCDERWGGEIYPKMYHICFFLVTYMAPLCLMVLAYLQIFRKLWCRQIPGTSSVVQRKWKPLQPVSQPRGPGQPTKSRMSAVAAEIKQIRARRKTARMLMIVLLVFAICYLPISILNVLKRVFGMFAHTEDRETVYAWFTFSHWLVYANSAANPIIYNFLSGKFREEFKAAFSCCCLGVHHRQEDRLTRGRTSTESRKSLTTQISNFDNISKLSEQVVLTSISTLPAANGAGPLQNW
Kind of assay: Intracellular calcium measurements (FLIPR), orexin receptor antagonistic activity, OX2. In kind it is cell-based. Particulars: CHO cells expressing human orexin-2 receptor, 10 nM orexin-A as agonist. The procedure: as §1, §2, §3, §4, §5, §6, §7, §8

For orientation: IC50 means the midpoint of a concentration-inhibition curve.

On to `Cc1nc(C(=O)N2C[C@H]3C[C@H]3[C@H]2CNC(=O)c2cccc3c2OCCO3)c(-c2cccc(C#N)c2)s1` (relative stereo) [Example 336, 2,3-Dihydro-benzo[1,4]dioxine-5-carboxylic acid {(1R*,2S*,5S*)-3-[5-(3-cyano-phenyl)-2-methyl-thiazole-4-carbonyl]-3-aza-bicyclo[3.1.0]hex-2-ylmethyl}-amide], for which the IC50 on human orexin-1 receptor was found to be 0.141 µM; on human orexin-2 receptor, 0.048 µM.

Take `Cc1cccc(-c2sc(C#CCO)nc2C(=O)N2C[C@H]3C[C@H]3[C@H]2CNC(=O)c2c(C)nc3sccn23)c1` (relative stereo) [Example 387, 6-Methyl-imidazo[2,1-b]thiazole-5-carboxylic acid {(1R*,2S*,5S*)-3-[2-(3-hydroxy-prop-1-ynyl)-5-m-tolyl-thiazole-4-carbonyl]-3-aza-bicyclo[3.1.0]hex-2-ylmethyl}-amide]: the 50% inhibitory concentration (IC50) on human orexin-1 receptor stood at 0.023 µM; at human orexin-2 receptor, 0.085 µM.

Take `Cc1cccc(-c2sc(CCCO)nc2C(=O)N2C[C@H]3C[C@H]3[C@H]2CNC(=O)c2c(C)nc3sccn23)c1` (relative stereo) [Example 389, 6-Methyl-imidazo[2,1-b]thiazole-5-carboxylic acid {(1R*,2S*,5S*)-3-[2-(3-hydroxy-propyl)-5-m-tolyl-thiazole4-carbonyl]-3-aza-bicyclo[3.1.0]hex-2-ylmethyl}-amide]: the figures for the IC50 at human orexin-1 receptor and on human orexin-2 receptor were 0.019 µM and 0.017 µM, respectively.

Take `Cc1ccc(C(=O)N2C[C@H]3C[C@H]3[C@H]2CNC(=O)c2cccc3c2OCC3)c(-c2cccc(F)c2)c1` [Compound 325]: the values for the IC50 at human orexin-1 receptor and at human orexin-2 receptor were 0.346 µM and 0.04 µM, respectively.

`Cc1ccc(C(=O)N2C[C@H]3C[C@H]3[C@H]2CNC(=O)c2cccc3c2OCCO3)c(-c2ccc3c(c2)OCCO3)c1` [Compound 350]: the IC50 came out at 0.11 µM on human orexin-1 receptor and 0.194 µM on human orexin-2 receptor.

Consider `Cc1csc(-c2c(C)cccc2C(=O)N2C[C@H]3C[C@H]3[C@H]2CNC(=O)c2cccc3c2OCCO3)c1` [Compound 376], for which the IC50 came to 0.194 µM on human orexin-1 receptor and 0.158 µM at human orexin-2 receptor.
